Laboratory results from PubChem BioAssay AID1259407 (Chemical Carcinogenesis Research Information System (CCRIS), 2018).
Calls of active or inactive are those of the source. The rule behind the calls is not given here.

Tested on: CCRIS mutagenicity, Ames/micronucleus/aberration tests
Experiment: CCRIS mutagenicity studies

Measured: mutagenic call

CCCCC(CC)COC(=O)c1ccccc1C(=O)OCC(CC)CCCC (stereo not drawn)
inactive: End Point: IN VITRO MICRONUCLEUS, Test System: V79 CELLS, Metabolic Activation: NONE inactive; negative | End Point: IN VITRO MICRONUCLEUS, Test System: V79 CELLS, Metabolic Activation: RAT, LIVER, S-9, AROCLOR 1254 inactive; negative | End Point: IN VIVO MICRONUCLEUS, Test System: HEPATOCYTES, Species: RAT, Strain/Sex: FISHER 344 OR SD/MALE, Route: ORAL OR IP inactive; negative | End Point: IN VIVO MICRONUCLEUS, Test System: PERIPHERAL BLOOD RETICULOCYTES, Species: RAT, Strain/Sex: FISHER 344 OR SD/MALE, Route: ORAL OR IP inactive; negative | Test System: AMES SALMONELLA TYPHIMURIUM, Strain/Indicator: TA97, Metabolic Activation: HAMSTER LIVER S-9, AROCLOR 1254 (10 OR 30%), Method: PREINCUBATION inactive; negative | Test System: AMES SALMONELLA TYPHIMURIUM, Strain/Indicator: TA97, Metabolic Activation: NONE, Method: PREINCUBATION inactive; negative | Test System: AMES SALMONELLA TYPHIMURIUM, Strain/Indicator: TA97, Metabolic Activation: NONE, Method: STANDARD PLATE inactive; negative | Test System: AMES SALMONELLA TYPHIMURIUM, Strain/Indicator: TA97, Metabolic Activation: RAT LIVER S-9, AROCLOR 1254 (10 OR 30%), Method: PREINCUBATION inactive; negative | Test System: AMES SALMONELLA TYPHIMURIUM, Strain/Indicator: TA97, Metabolic Activation: S-9, Method: STANDARD PLATE inactive; negative | Test System: AMES SALMONELLA TYPHIMURIUM, Strain/Indicator: TA98, Metabolic Activation: HAMSTER LIVER S-9, AROCLOR 1254 (10 OR 30%), Method: PREINCUBATION inactive; negative | Test System: AMES SALMONELLA TYPHIMURIUM, Strain/Indicator: TA98, Metabolic Activation: HAMSTER, LIVER, S-9, AROCLOR 1254 (10%), Method: PREINCUBATION inactive; negative | Test System: AMES SALMONELLA TYPHIMURIUM, Strain/Indicator: TA98, Metabolic Activation: NONE, Method: FLUCTUATION (MICROTITER) inactive; negative | Test System: AMES SALMONELLA TYPHIMURIUM, Strain/Indicator: TA98, Metabolic Activation: NONE, Method: STANDARD PLATE inactive; negative | Test System: AMES SALMONELLA TYPHIMURIUM, Strain/Indicator: TA98, Metabolic Activation: RAT LIVER S-9, AROCLOR 1254 (10 OR 30%), Method: PREINCUBATION inactive; negative | Test System: AMES SALMONELLA TYPHIMURIUM, Strain/Indicator: TA98, Metabolic Activation: RAT LIVER S-9, AROCLOR 1254, Method: FLUCTUATION (MICROTITER) inactive; negative | Test System: AMES SALMONELLA TYPHIMURIUM, Strain/Indicator: TA98, Metabolic Activation: RAT LIVER S-9, PHENOBARBITAL AND BETA-NAPHTHOFLAVONE, Method: PREINCUBATION inactive; negative | Test System: AMES SALMONELLA TYPHIMURIUM, Strain/Indicator: TA98, Metabolic Activation: RAT, LIVER, S-9, AROCLOR 1254 (10%), Method: PREINCUBATION inactive; negative | Test System: AMES SALMONELLA TYPHIMURIUM, Strain/Indicator: TA98, Metabolic Activation: RAT, LIVER, S-9, AROCLOR 1254, Method: STANDARD PLATE inactive; negative | Test System: AMES SALMONELLA TYPHIMURIUM, Strain/Indicator: TA98, Metabolic Activation: S-9, Method: STANDARD PLATE inactive; negative | Test System: AMES SALMONELLA TYPHIMURIUM, Strain/Indicator: TA100, Metabolic Activation: HAMSTER LIVER S-9, AROCLOR 1254 (10 OR 30%), Method: PREINCUBATION inactive; negative | Test System: AMES SALMONELLA TYPHIMURIUM, Strain/Indicator: TA100, Metabolic Activation: HAMSTER, LIVER, S-9, AROCLOR 1254 (10%), Method: PREINCUBATION inactive; negative | Test System: AMES SALMONELLA TYPHIMURIUM, Strain/Indicator: TA100, Metabolic Activation: NONE, Method: STANDARD PLATE inactive; negative | Test System: AMES SALMONELLA TYPHIMURIUM, Strain/Indicator: TA100, Metabolic Activation: RAT LIVER S-9, AROCLOR 1254 (10 OR 30%), Method: PREINCUBATION inactive; negative | Test System: AMES SALMONELLA TYPHIMURIUM, Strain/Indicator: TA100, Metabolic Activation: RAT LIVER S-9, PHENOBARBITAL AND BETA-NAPHTHOFLAVONE, Method: PREINCUBATION inactive; negative | Test System: AMES SALMONELLA TYPHIMURIUM, Strain/Indicator: TA100, Metabolic Activation: RAT, LIVER, S-9, AROCLOR 1254 (10%), Method: PREINCUBATION inactive; negative | Test System: AMES SALMONELLA TYPHIMURIUM, Strain/Indicator: TA100, Metabolic Activation: RAT, LIVER, S-9, AROCLOR 1254, Method: STANDARD PLATE inactive; negative | Test System: AMES SALMONELLA TYPHIMURIUM, Strain/Indicator: TA100, Metabolic Activation: S-9, Method: STANDARD PLATE inactive; negative | Test System: AMES SALMONELLA TYPHIMURIUM, Strain/Indicator: TA102, Metabolic Activation: CO631 CELLS, Method: STANDARD PLATE inactive; negative | Test System: AMES SALMONELLA TYPHIMURIUM, Strain/Indicator: TA102, Metabolic Activation: NONE, Method: STANDARD PLATE inactive; negative | Test System: AMES SALMONELLA TYPHIMURIUM, Strain/Indicator: TA102, Metabolic Activation: PANCREATIN, Method: STANDARD PLATE inactive; negative | Test System: AMES SALMONELLA TYPHIMURIUM, Strain/Indicator: TA102, Metabolic Activation: PORCINE, PANCREAS, LIPASES, Method: STANDARD PLATE inactive; negative | Test System: AMES SALMONELLA TYPHIMURIUM, Strain/Indicator: TA102, Metabolic Activation: RAT HEPATOCYTES, Method: STANDARD PLATE inactive; negative | Test System: AMES SALMONELLA TYPHIMURIUM, Strain/Indicator: TA102, Metabolic Activation: RAT LIVER S-9, PHENOBARBITAL AND 5,6-BENZOFLAVONE, Method: STANDARD PLATE inactive; negative | Test System: AMES SALMONELLA TYPHIMURIUM, Strain/Indicator: TA102, Metabolic Activation: S-9, Method: STANDARD PLATE inactive; negative | Test System: AMES SALMONELLA TYPHIMURIUM, Strain/Indicator: TA1535, Metabolic Activation: HAMSTER LIVER S-9, AROCLOR 1254 (10 OR 30%), Method: PREINCUBATION inactive; negative | Test System: AMES SALMONELLA TYPHIMURIUM, Strain/Indicator: TA1535, Metabolic Activation: HAMSTER, LIVER, S-9, AROCLOR 1254 (10%), Method: PREINCUBATION inactive; negative | Test System: AMES SALMONELLA TYPHIMURIUM, Strain/Indicator: TA1535, Metabolic Activation: NONE, Method: STANDARD PLATE inactive; negative | Test System: AMES SALMONELLA TYPHIMURIUM, Strain/Indicator: TA1535, Metabolic Activation: RAT LIVER S-9, AROCLOR 1254 (10 OR 30%), Method: PREINCUBATION inactive; negative
